Test results from patent publication US5102667A, “Isoindolone derivatives, their preparation and the pharmaceutical compositions containing them” (Rhone-Poulenc Sante, priority 1989, dated 1992).
Where two headings read alike, the source gives them in different places.

How the values were obtained:
[1] = analgesic activity (technique of E. Siegmund et al.); format: in vivo
From the text: Exp. Biol. Med., 95, 729 (1957).

[2] = tested on: substance P; assay: inhibition of the increase in capillary permeability caused by substance P (technique of A. Saria et al.); format: in vivo; conditions: Rattus norvegicus, iv, rats
From the text: The study of several isoindolone derivatives of general formula (I) using the technique of A. Saria et al., Arch.

[3] = tested on: septide; assay: antagonism of behavioural effects induced by septide administered intrathecally (technique of R. E. Rodriguez et al.); format: in vivo; conditions: rats
[4] = tested on: septide; assay: antagonism of hypotension induced by septide / substance P (technique of C. A. Maggi et al.); format: in vivo; conditions: 0.2 mg/kg i.v./min, for 5 min; rats; i.v. injection of 250 μg of septide
Protocol: The injection of substance P into the animal causes hypotension. The products studied using the technique of C. A. Maggi et al., J. Auton. Pharmac., 7, 11-32 (1987) show an antagonist effect in rats towards this hypotension. In particular, the product of Example 60 administered in a dose of 0.2 mg/kg i.v./min, for 5 min, causes an approximately 50% antagonism of the hypotension induced by an i.v. injection of 250 μg of septide.

[5] = tested on: substance P receptors of human cells: lymphoblasts of line IM 9; assay: binding of substance P-H^3 on washed homogenates of IM-9 cells; conditions: substance P-H^3 1 nM
Protocol: Substance P plays a role in the modulation of immune processes (J. P. McGillis et al., Fed. Proc., 46 (1), 196-199 (1987)). Substance P binds to receptors of human cells in cultures: the lymphoblasts of line IM 9 [D. G. Payan et al., J. of Immunology, 133 (6), 3260-5 (1984)]. The products according to the invention displace substance P at these locations.
Binding substance P--H^3 (concentration 1 nM)
on washed homogenates of IM-9 cells after freezing

For `O=C1CCC(c2ccccc2)(c2ccccc2)[C@@H]2CN(C(Cc3ccccc3)=NCc3ccccc3)C[C@H]12` (racemic) [Example 13, (3aRS,7aRS)-2-(α-benzyliminophenethyl)-7,7-diphenyl-4-perhydroisoindolone], the ED50 ([1]; po, read-out: ED50) was 19 mg/kg.

In the case of `COc1ccccc1CC(=N)N1C[C@@H]2C(=O)CCC(c3ccccc3)(c3ccccc3)[C@@H]2C1` [Example 50, (3aR,7aR)-2-[1-imino-2-(2-methoxyphenyl)ethyl]-7,7-diphenyl-4-perhydroisoindolone], the ED50 ([1]; p.o.) is reported as 0.3 mg/kg p.o, the ED50 [2] is reported as ~0.05 mg/kg and the “% inhibition of the behaviour at a dose of 10 mg/kg sc” value [3] is reported as 50%.

Work on `O=C1CCC(c2ccccc2)(c2ccccc2)[C@@H]2CN(C(Cc3ccccc3)=NCc3cccs3)C[C@H]12` (relative stereo) [Example 27] yielded an ED50 ([1]; po, read-out: ED50) of 29 mg/kg.

In the case of `CN(C)c1ccccc1CC(=O)N1C[C@@H]2C(=O)CCC(c3ccccc3)(c3ccccc3)[C@@H]2C1` [Example 60, (3aR,7aR)-7,7-diphenyl-2-[2-(2-dimethylaminophenyl)acetyl]-4-perhydroisoindolone], the ED50 ([1]; po, read-out: ED50) is reported as 38 mg/kg, the ED50 [2] is reported as ~1 mg/kg and the “% inhibition of the behaviour at a dose of 10 mg/kg sc” value [3] is reported as 80%. The “antagonism of the hypotension induced by septide” value [4] was “approximately 50%”.

With `COc1ccccc1[C@H](C)C(=O)N1C[C@@H]2C(=O)CCC(c3ccccc3)(c3ccccc3)[C@@H]2C1` [Example 76, (3aR,7aR)-7,7-diphenyl-2-[(S)-2-(2-methoxyphenyl)propionyl]-4-perhydroisoindolone] the “Binding substance P-H^3 (concentration 1 nM) on washed homogenates of IM-9 cells after freezing” value [5] was 315.

`N=C(Cc1ccccc1)N1C[C@@H]2C(=O)CCC(c3ccccc3)(c3ccccc3)[C@@H]2C1` (racemic) [Example 4, (3aRS,7aRS)-2-(α-iminophenethyl)-7,7-diphenyl-4-perhydroisoindolone] showed an ED50 ([1]; po, read-out: ED50) of 42 mg/kg.

In the case of `COc1ccccc1CC(=N)N1C[C@@H]2C(=O)CCC(c3ccccc3)(c3ccccc3)[C@@H]2C1` (racemic) [Example 48, (3aRS,7aRS)-2-[1-imino-2-(2-methoxyphenyl)ethyl]-7,7-diphenyl-4-perhydroisoindolone], the ED50 ([1]; p.o.) is reported as 4 mg/kg p.o.

For `COc1ccccc1CC(=O)N1C[C@@H]2C(=O)CCC(c3ccccc3)(c3ccccc3)[C@@H]2C1` [Example 49, (3aR,7aR)-(-)-7,7-diphenyl-2-[(2-methoxyphenyl)acetyl]-4-perhydroisoindolone], the “Binding substance P-H^3 (concentration 1 nM) on washed homogenates of IM-9 cells after freezing” value [5] was 680.
